In patent publication US10870647B2, “Imidazopyridine derivative, method for preparing same, and pharmaceutical composition containing same as active ingredient for preventing or treating cancer” (DAEGU-GYEONGBUK MEDICAL INNOVATION FOUNDATION, priority 2016, dated 2020):

Columns and labels:
Assay in all cases: Kinase selectivity, scanMAX Kinase assay panel (DiscoverX), % control at 1 uM
Type in all cases: binding
[1] = target: T1, scanMAX Kinase assay panel (Homo sapiens, UniProt Q9UL54); conditions: TAOK2; 1 uM; read-out: Percent Control (%)
T1 construct: purchased DiscoverX
T1 sequence (Q9UL54 1-1235): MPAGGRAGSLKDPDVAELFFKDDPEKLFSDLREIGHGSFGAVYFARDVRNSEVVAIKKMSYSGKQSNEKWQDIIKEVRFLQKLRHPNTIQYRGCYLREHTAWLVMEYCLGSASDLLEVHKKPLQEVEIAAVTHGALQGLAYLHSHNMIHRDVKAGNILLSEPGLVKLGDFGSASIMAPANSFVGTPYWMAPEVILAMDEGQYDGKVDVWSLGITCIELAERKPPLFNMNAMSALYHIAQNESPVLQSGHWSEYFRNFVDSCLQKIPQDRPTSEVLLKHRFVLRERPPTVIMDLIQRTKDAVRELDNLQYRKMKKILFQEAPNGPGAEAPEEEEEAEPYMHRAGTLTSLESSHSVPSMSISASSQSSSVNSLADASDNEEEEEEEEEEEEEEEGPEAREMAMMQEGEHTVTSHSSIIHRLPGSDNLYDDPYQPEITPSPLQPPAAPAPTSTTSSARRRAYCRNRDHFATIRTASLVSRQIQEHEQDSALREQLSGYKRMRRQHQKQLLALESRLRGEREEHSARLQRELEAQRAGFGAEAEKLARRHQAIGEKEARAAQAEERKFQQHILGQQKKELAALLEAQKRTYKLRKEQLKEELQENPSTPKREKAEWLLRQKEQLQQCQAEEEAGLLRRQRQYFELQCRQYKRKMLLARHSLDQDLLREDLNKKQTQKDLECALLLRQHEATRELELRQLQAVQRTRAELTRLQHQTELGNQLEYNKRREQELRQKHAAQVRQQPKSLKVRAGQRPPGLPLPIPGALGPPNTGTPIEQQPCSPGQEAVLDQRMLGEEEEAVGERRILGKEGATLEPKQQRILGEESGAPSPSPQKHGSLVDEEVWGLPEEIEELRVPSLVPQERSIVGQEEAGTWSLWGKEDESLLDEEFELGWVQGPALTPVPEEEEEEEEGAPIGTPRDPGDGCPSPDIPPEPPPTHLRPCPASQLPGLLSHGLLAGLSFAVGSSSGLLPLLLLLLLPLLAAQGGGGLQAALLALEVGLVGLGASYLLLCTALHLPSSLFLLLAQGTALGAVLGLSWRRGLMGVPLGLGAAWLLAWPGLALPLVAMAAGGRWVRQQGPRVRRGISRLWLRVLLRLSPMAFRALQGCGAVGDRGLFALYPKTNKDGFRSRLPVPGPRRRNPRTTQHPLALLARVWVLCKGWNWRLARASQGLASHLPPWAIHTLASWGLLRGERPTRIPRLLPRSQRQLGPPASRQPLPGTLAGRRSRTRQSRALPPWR
Outline: (§1)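 Binding across the scanMAX kinase panel was tested at 1 uM compound. % control = (compound − positive control)/(negative control − positive control) × 100; below 35 counted as active.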

[2] = target: T2, scanMAX Kinase assay panel (Homo sapiens, UniProt O14578); conditions: CIT; 1 uM; read-out: Percent Control (%)
T2 construct: purchased DiscoverX
Outline: as §1

[3] = target: T3, scanMAX Kinase assay panel (Homo sapiens, UniProt Q9H2K8); conditions: TAOK3; 1 uM; read-out: Percent Control (%)
T3 construct: purchased DiscoverX
T3 sequence (Q9H2K8 1-898): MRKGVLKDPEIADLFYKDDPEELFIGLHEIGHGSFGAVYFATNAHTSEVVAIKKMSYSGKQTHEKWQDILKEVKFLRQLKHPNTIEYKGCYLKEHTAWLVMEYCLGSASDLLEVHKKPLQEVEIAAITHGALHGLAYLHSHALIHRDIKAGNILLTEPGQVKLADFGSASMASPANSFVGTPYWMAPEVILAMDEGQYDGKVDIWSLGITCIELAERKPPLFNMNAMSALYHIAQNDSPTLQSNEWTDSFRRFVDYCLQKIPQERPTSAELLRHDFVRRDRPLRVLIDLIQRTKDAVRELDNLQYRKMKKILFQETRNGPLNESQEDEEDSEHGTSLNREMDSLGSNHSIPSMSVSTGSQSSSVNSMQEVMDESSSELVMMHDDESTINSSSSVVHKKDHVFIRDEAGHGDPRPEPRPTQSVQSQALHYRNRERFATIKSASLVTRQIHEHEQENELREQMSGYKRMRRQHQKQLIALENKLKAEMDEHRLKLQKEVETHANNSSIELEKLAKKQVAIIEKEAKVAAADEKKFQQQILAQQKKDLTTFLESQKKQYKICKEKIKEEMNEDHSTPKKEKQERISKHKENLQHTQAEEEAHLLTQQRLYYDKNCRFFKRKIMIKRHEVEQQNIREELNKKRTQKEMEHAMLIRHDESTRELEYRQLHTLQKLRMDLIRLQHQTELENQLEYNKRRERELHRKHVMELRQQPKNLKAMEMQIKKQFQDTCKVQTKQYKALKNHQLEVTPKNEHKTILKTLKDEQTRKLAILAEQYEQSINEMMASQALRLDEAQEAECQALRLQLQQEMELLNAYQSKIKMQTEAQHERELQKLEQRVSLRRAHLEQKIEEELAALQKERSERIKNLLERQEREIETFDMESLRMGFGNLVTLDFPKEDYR
Outline: as §1

[4] = target: T4, scanMAX Kinase assay panel (Homo sapiens, UniProt O96017); conditions: CHEK2; 1 uM; read-out: Percent Control (%)
T4 construct: purchased DiscoverX
Outline: as §1

[5] = target: T5, scanMAX Kinase assay panel (Homo sapiens, UniProt Q5S007); conditions: LRRK2; 1 uM; read-out: Percent Control (%)
T5 construct: purchased DiscoverX
Outline: as §1

[6] = target: T6, scanMAX Kinase assay panel (Homo sapiens, UniProt P0C1S8); conditions: WEE2; 1 uM; read-out: Percent Control (%)
T6 construct: purchased DiscoverX
Outline: as §1

T6 sequence (P0C1S8 whole entry): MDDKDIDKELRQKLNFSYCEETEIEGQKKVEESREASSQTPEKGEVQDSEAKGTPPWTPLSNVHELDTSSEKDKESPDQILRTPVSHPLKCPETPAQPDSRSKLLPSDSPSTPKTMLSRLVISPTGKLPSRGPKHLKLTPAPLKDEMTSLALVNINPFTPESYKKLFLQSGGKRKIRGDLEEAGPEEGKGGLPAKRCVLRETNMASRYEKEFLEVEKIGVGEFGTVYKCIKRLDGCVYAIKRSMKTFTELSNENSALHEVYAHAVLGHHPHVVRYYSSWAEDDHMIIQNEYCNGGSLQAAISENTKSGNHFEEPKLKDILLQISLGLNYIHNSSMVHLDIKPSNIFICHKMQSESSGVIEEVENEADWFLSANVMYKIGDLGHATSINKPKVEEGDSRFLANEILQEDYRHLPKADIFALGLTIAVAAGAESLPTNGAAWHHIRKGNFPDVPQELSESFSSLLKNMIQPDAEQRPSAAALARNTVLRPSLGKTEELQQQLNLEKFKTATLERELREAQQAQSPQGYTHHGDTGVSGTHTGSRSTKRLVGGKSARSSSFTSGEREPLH
T5 sequence (Q5S007 whole entry): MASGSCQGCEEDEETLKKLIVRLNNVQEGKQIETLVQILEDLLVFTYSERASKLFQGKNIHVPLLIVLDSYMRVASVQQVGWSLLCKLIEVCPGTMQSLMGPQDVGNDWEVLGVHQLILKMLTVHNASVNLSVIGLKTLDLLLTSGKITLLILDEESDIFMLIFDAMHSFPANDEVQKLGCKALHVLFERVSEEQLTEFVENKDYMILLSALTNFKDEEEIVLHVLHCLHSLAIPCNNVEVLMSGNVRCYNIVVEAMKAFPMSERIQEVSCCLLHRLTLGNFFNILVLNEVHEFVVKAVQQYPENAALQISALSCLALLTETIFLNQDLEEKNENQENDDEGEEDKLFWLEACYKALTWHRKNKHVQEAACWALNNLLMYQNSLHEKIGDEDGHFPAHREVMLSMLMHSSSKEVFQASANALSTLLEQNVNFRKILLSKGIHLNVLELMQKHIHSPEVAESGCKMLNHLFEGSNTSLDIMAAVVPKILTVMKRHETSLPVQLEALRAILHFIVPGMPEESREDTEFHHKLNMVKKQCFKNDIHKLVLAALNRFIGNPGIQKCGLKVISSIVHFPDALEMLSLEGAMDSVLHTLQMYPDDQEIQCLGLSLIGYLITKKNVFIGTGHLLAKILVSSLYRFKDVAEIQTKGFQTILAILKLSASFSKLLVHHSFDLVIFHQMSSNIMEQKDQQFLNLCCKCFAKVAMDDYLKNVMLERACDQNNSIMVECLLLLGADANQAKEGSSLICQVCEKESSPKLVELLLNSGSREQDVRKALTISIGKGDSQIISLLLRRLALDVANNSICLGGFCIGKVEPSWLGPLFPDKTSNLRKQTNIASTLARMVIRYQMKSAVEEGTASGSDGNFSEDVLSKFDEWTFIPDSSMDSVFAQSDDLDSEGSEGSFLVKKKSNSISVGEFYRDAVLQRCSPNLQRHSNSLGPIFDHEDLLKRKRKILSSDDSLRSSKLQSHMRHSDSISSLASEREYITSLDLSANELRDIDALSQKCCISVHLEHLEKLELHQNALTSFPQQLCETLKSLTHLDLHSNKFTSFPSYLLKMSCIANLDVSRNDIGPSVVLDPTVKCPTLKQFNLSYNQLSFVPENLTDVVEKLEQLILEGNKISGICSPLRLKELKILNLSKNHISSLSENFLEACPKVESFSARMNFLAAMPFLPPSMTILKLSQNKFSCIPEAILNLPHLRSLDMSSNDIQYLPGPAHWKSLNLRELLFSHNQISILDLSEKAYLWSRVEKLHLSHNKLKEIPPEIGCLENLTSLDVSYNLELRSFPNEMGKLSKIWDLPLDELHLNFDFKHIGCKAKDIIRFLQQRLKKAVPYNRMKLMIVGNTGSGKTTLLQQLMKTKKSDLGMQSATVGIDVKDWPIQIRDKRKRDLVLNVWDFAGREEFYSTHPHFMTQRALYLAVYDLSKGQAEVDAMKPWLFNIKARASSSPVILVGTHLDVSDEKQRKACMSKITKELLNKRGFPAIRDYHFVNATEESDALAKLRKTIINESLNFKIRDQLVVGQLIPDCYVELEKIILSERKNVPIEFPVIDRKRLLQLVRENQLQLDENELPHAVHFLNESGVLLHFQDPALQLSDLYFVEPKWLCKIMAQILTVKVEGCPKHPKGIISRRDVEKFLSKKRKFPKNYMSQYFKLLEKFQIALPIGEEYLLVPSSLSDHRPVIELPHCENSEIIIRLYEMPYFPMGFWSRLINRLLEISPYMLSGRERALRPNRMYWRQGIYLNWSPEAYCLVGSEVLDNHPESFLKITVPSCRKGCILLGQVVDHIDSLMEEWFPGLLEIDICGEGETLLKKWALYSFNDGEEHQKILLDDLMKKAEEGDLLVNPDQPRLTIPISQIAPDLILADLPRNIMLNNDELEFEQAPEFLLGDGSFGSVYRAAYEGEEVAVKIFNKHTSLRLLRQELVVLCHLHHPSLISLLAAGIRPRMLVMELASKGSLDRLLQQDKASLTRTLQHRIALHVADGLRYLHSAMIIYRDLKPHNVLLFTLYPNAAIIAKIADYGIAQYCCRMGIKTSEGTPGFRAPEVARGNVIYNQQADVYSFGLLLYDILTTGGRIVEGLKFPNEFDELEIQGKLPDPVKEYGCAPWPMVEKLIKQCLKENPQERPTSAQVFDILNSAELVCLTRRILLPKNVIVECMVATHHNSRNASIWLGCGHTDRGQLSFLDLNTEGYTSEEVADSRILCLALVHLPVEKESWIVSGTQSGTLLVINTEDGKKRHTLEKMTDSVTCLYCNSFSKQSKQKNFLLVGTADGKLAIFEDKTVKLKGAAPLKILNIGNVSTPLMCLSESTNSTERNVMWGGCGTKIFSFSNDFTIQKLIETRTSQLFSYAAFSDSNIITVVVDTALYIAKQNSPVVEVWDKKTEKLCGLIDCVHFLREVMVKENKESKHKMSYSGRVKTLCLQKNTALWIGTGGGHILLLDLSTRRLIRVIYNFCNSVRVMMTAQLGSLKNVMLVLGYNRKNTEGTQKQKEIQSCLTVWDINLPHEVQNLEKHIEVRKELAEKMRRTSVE
T2 sequence (O14578 whole entry): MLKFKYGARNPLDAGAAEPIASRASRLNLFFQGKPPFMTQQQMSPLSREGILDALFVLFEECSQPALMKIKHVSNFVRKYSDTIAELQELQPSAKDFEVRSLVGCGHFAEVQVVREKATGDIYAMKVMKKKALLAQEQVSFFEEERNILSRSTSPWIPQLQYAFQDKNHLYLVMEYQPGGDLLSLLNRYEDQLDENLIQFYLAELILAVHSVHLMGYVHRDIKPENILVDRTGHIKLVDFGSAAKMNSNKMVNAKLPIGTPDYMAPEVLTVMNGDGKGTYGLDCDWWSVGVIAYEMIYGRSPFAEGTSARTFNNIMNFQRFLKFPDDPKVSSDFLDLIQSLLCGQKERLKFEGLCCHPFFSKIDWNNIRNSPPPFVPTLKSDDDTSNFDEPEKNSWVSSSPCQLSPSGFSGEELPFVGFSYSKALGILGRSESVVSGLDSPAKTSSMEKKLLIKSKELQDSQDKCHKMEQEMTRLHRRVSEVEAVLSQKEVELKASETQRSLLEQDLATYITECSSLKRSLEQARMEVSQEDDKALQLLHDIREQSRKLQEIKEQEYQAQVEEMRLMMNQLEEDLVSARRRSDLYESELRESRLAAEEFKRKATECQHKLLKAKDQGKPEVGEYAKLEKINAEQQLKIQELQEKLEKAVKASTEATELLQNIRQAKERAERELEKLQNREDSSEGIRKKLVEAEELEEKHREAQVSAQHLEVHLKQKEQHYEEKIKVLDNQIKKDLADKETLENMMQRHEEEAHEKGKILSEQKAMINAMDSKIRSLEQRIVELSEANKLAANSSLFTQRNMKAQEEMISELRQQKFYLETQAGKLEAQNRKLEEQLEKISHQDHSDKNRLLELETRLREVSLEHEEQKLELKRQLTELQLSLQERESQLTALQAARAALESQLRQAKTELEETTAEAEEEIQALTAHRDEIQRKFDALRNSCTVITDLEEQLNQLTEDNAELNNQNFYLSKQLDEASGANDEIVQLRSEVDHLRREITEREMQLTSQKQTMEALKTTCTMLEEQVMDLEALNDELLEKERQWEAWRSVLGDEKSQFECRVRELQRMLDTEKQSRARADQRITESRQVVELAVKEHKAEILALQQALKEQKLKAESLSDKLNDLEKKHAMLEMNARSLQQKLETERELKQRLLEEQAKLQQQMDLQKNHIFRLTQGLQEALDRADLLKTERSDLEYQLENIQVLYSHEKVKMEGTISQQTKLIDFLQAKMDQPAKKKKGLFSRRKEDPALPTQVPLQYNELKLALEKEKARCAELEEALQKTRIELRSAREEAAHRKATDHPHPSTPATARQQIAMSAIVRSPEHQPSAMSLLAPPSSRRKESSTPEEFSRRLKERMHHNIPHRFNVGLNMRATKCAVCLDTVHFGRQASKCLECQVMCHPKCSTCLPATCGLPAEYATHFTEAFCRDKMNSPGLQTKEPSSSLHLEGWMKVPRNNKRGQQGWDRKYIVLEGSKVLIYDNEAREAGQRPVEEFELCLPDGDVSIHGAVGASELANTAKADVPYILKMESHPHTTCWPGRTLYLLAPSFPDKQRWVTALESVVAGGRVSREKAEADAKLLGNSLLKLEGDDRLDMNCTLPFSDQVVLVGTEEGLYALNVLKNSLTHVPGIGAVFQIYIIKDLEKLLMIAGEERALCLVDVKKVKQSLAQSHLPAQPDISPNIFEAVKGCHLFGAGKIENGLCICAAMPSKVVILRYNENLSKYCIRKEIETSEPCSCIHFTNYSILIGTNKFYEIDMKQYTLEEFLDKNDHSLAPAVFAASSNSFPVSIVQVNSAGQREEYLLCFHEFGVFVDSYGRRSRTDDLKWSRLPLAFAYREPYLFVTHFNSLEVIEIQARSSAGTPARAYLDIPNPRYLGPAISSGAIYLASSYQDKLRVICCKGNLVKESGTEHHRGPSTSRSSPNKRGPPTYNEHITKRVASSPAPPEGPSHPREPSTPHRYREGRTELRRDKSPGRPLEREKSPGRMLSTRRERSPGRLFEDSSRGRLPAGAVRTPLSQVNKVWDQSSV

SMILES | remaining binding at 1 µM [1] | remaining binding at 1 µM [2] | remaining binding at 1 µM [3] | remaining binding at 1 µM [4] | remaining binding at 1 µM [5] | remaining binding at 1 µM [6]
Cc1ccc(C(=O)Nc2ccc(CN3CCN(C)CC3)c(C(F)(F)F)c2)cc1C#Cc1cnc2c(Nc3cnn(C)c3)cccn12 [Example 1, 4-methyl-3-((8-((1-methyl-1H-pyrazol-4-yl)amino)imidazo[1,2-a]pyridin-3-yl)ethynyl)-N-(4-((4-methylpiperazin-1-yl)methyl)-3-(trifluoromethyl)phenyl)benzamide] | 14% | 0% | 1% | 34% | 10% | 60%
Cc1cn(-c2cc(NC(=O)c3ccc(C)c(C#Cc4cnc5c(Nc6cnn(C)c6)cccn45)c3)cc(C(F)(F)F)c2)cn1 [Example 12, 4-methyl-N-(3-(4-methyl-1H-imidazol-1-yl)-5-(trifluoromethyl)phenyl)-3-((8-((1-methyl-1H-pyrazol-4-yl)amino)imidazo[1,2-a]pyridin-3-yl)ethynyl)benzamide] | 25% | 0% | 61% | 84% | 100% | 80%
Cc1ccc(NC(=O)C2(C(=O)Nc3ccc(F)cc3)CC2)cc1C#Cc1cnc2c(Nc3cnn(C(C)C)c3)cccn12 [Example 78] | 100% | 100% | 99% | 91% | 95% | 100%
